Source: paper PMC5405622 (Drug Metabolism Letters, 2016)
Where “and” joins values, the source holds several entries; their conditions need not be identical. Equal values may be shown once. Read-outs that look alike come from different tables or passages of the source.

Tests used:
[1] = Unbound fraction in liver perfusate and liver homogenate; type: in vitro ADME, rat
[2] = Kinetic solubility; type: physicochemical
[3] = Intrinsic clearance in rat liver microsomes; type: in vitro ADME; settings: rat liver microsomes 0.5 mg/mL, 0.5 μM, scaled
[4] = system: Oct1/2; experiment: Blood clearance in Oct1/2 double KO and wild-type mice with or without ABT; type: in vivo, mouse; settings: for Reduction of blood clearance by ABT: ABT 100 mg/kg oral 2 h before GNE1 2 mg/kg IV
[5] = Intravenous bolus and infusion pharmacokinetics in Sprague-Dawley rats; type: in vivo, rat; settings: for Clearance relative to hepatic blood flow: dosed in rat; for Plasma CL: n = 3; for In vivo rat CLp IV bolus: plasma
[6] = Intrinsic clearance in human liver microsomes; type: in vitro ADME; settings: human liver microsomes 0.5 mg/mL, 0.5 μM, scaled
[7] = Log D at pH 7.4; type: physicochemical; settings: octanol/buffer
[8] = Single-pass isolated perfused rat liver; type: in vitro ADME; settings: for Propranolol (cassette) ER: propranolol 2 to 4 μM
[9] = biological target: PAK1 (Homo sapiens, UniProt Q13153); experiment: PAK1 inhibition constant; type: biochemical; settings: read-out: PAK1 Ki
Chain of PAK1 (Q13153 whole entry): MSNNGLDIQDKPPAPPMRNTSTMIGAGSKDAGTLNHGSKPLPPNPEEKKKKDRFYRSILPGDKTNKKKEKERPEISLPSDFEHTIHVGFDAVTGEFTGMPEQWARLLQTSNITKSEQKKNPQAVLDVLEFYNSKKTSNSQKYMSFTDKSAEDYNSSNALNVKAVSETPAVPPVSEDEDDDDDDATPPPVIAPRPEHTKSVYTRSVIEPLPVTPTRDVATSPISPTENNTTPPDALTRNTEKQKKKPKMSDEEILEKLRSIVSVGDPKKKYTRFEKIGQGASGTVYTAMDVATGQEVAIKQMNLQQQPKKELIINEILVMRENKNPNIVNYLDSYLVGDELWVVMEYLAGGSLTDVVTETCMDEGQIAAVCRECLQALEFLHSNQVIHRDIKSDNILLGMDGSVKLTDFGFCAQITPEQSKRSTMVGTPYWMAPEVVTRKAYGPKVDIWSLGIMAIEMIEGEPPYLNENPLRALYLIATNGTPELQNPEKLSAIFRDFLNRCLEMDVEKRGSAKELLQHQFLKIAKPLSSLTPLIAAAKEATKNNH

[10] = not given; remark: listed apart in the source
[11] = system: MDCK parent cells; experiment: MDCK permeability and efflux; type: in vitro ADME; settings: for MDCK A→B Papp: apical to basolateral
[12] = system: cryo-preserved rat hepatocytes; settings: cited from earlier work
[13] = Intrinsic clearance in rat hepatocytes; type: in vitro ADME; settings: rat hepatocytes 0.5 million cells/mL, 0.5 μM, scaled
[14] = Intrinsic clearance in human hepatocytes; type: in vitro ADME; settings: human hepatocytes 0.5 million cells/mL, 0.5 μM, scaled
[15] = Unbound fraction in rat; type: in vitro ADME
[16] = system: cytochrome P450 (rat S9); experiment: NADPH-dependent; type: in vitro ADME; settings: S9 2 mg/mL, NADPH 1 mM
[17] = system: N-acetyltransferase (rat S9); experiment: Acetyl-CoA-dependent N-acetylation in rat liver S9; type: in vitro ADME; settings: S9 2 mg/mL, acetyl-CoA 1 mM
[18] = read-out: Plasma concentration at Cmax; cited from earlier work
[19] = system: mouse hepatocytes; experiment: Metabolism of GNE1 in mouse hepatocytes with or without ABT; type: in vitro ADME; settings: ABT 500 μM, GNE1 5 μM
[20] = Stability of GNE4 in rat intestinal S9 and feces; type: in vitro ADME; settings: rat intestinal S9 and feces (data not shown)
[21] = system: propranolol metabolism; experiment: In vitro inhibition of propranolol metabolism by quinine; type: in vitro ADME; settings: quinine 1-10 micromolar, in vitro (data not shown)

## N[C@H]1CC[C@H](CNc2ncc(Cl)c(Nc3cc(C4CC4)[nH]n3)n2)CC1 [GNE1, N^2-(((1r,4r)-4-aminocyclohexyl)methyl)-5-chloro-N^4-(5-cyclopropyl-1H-pyrazol-3-yl)pyrimidine-2,4-diamine]
[1]; isolated perfused liver perfusate (4% BSA, 20% bovine red blood cells)
  fu perfusate: 0.3
[1]; liver homogenate, corrected for dilution
  fu in liver (corrected): 0.3/0.01
[2]
  Kinetic solubility: 157 µM
[3]
  RLM CLint: 6.1 mL/min/kg
[4]; Oct1/2 double KO mice
  Reduction of blood clearance by ABT: 28.2%
[4]; regardless of ABT treatment
  Average change of blood clearance between wild-type and transporter KO mice: 56%
[4]; wild-type and double KO mice averaged
  Average overall decrease of blood clearance by ABT: 24%
[4]; wild-type mice
  Reduction of blood clearance by ABT: 20.5%
[5]
  Clearance relative to hepatic blood flow: greater than hepatic blood flow
[5]; rat, IV bolus, 2 mg/kg
  CLB (biliary clearance): 21.5 ± 6.20 mL/min/kg
  CLR (renal clearance): 49.7 ± 3.84 mL/min/kg
  Terminal half-life: 1.32 ± 0.43 h
  Vss: 20.5 ± 1.92 L/kg
  Plasma CL: 216 ± 53.0 mL/min/kg
[5]; rat, IV bolus
  In vivo rat CLp IV bolus: 216 mL/min/kg
[5]; rat, IV infusion 0.57 mg/kg/h
  CLR (renal clearance): 20 ± 1.2 mL/min/kg and 20.2 ± 1.22 mL/min/kg
  Terminal half-life: 0.74 ± 0.10 h
  Vss: 4.2 ± 1.2 L/kg and 4.21 ± 1.16 L/kg
[5]; rat, IV infusion 0.57 mg/kg/h to 90% of steady state
  Plasma CL: 121 ± 4.35 mL/min/kg
BDC rats
  Fecal recovery of unchanged GNE1 over 24 hours: 24%
BDC rats, 0-4h
  Dose recovery of unchanged GNE1 in bile: 7.8 ± 1.2 % of Total Dosed
  Dose recovery of unchanged GNE1 in urine: BQL
BDC rats, 0-8h
  Dose recovery of unchanged GNE1 in feces: 5.8 ± 4.2 % of Total Dosed
BDC rats, 4-8h
  Dose recovery of unchanged GNE1 in bile: 2.5 ± 0.9 % of Total Dosed
  Dose recovery of unchanged GNE1 in urine: 30 % of Total Dosed and 30 ± 1.1 % of Total Dosed
BDC rats, 8-24h
  Dose recovery of unchanged GNE1 in bile: 3.9 ± 1.8 % of Total Dosed
  Dose recovery of unchanged GNE1 in feces: 18 % of Total Dosed and 18 ± 4.7 % of Total Dosed
  Dose recovery of unchanged GNE1 in urine: 2.8 ± 1.0 % of Total Dosed
BDC rats, 24-48h
  Dose recovery of unchanged GNE1 in bile: <1 % of Total Dosed
  Dose recovery of unchanged GNE1 in feces: 2.2 ± 1.4 % of Total Dosed
  Dose recovery of unchanged GNE1 in urine: <1 % of Total Dosed
BDC rats, 24–72 h
  Total Recovery (24–72 h) of unchanged GNE1: 2.2 % of Total Dosed
BDC rats, 48-72h
  Dose recovery of unchanged GNE1 in bile: 0 % of Total Dosed
  Dose recovery of unchanged GNE1 in feces: <1 % of Total Dosed
  Dose recovery of unchanged GNE1 in urine: <1 % of Total Dosed
BDC rats, 24 h
  Overall biliary excretion of unchanged GNE1: ~14%
BDC rats, 72 h collection experiment
  Recovery of GNE1 in feces during 0–24 hours: 31 % of Total Dosed
BDC rats, compared with intact rats
  Percentage of GNE1 detected in urine: 30%
BDC rats, up to 24 hours
  Total Recovery of unchanged GNE1: 71 % of Total Dosed
Cannulated rats, IV
  Biliary clearance as share of total clearance: approximately 14%
rats, IV
  Renal clearance as share of total clearance: ~16%
[6]
  HLM CLint: 4.5 mL/min/kg
[7]
  Log DpH=7.4: 0.83
[8]; GNE1 Cin = 0.3 μM with Quinine (10 μM)
  GNE1 hepatic ER: 0.36
[8]; GNE1 Cin = 0.3 μM, flow 12 mL/min
  GNE1 hepatic ER: 0.78
[8]; GNE1 Cin = 8 μM
  GNE1 hepatic ER: 0.41
[8]; end of perfusion, Cin = 0.3 μM
  Perfusate Cout: 0.07 µM
  Total liver concentration of GNE1: 8 µM
[8]; isolated perfused rat liver, Cin 0.3 μM
  Biliary clearance, fold lower than calculated perfusate clearance: about 26 fold
[8]; isolated perfused rat liver, GNE1 Cin = 0.3 μM
  Biliary clearance: 0.7 mL/min/kg
[8]; isolated perfused rat liver, GNE1 Cin = 0.3 μM with Quinine (10 μM)
  Biliary clearance: 0.046 mL/min/kg
[8]; isolated perfused rat liver, GNE1 Cin = 8 μM
  Biliary clearance: 0.23 mL/min/kg
[8]; liver/perfusate, Cin = 0.3 μM
  kpu,u (intracellular to extracellular ratio of unbound concentrations): 3.8
[8]; multiple IPL experiments
  Biliary clearance as share of total perfusate clearance: less than 5%
[9]
  Ki: 26 nM
[10]; intact rats (no bile collection), % of dose
  Total amount of GNE1 recovered in urine over 24 hours: 16% and 15.6% and 15%
[10]; intact rats, 0-8 h (one value across 0-4h and 4-8h)
  Dose recovery of unchanged GNE1 in urine: 8.5 ± 2.3 % of Total Dosed
[10]; intact rats, 8-24h
  Dose recovery of unchanged GNE1 in urine: 7.1 ± 2.0 % of Total Dosed
[10]; intact rats, 24-48h
  Dose recovery of unchanged GNE1 in urine: <1 % of Total Dosed
[10]; intact rats, 24-48h (72 h experiment)
  Dose recovery of unchanged GNE1 in feces: 8.4 ± 2.9 % of Total Dosed
[10]; intact rats, 24–72 h
  Total Recovery (24–72 h) of unchanged GNE1: 8.4 % of Total Dosed
[10]; intact rats, 48-72h
  Dose recovery of unchanged GNE1 in feces: <1 % of Total Dosed
  Dose recovery of unchanged GNE1 in urine: <1 % of Total Dosed
[10]; intact rats, 72 h collection experiment
  Recovery of GNE1 in feces during 0–24 hours: up to 91 % of Total Dosed
[10]; intact rats, up to 24 hours
  Total Recovery of unchanged GNE1: 93 % of Total Dosed
[10]; rat, IV
  N-acetylation as share of total dose: about 10%
[11]
  MDCK efflux ratio: 43
  MDCK A→B Papp: 0.1 ×10⁻⁶ cm/s
[12]
  Uptake rate (CLint, influx): 11.1 mL/min/g of liver
[13]
  RH CLint: 34 mL/min/kg
[14]
  HH CLint: 2.4 mL/min/kg
[15]
  fu rat: 0.16

## CC(C)NCC(O)COc1cccc2ccccc12 (stereo not drawn) [propranolol, reference compound]
[8]; cassette with GNE1 0.3 μM and Quinine (10 μM)
  Propranolol (cassette) ER: 0.45
[8]; cassette with GNE1 Cin = 0.3 μM
  Propranolol (cassette) ER: > 0.95
[8]; cassette with GNE1 Cin = 0.3 μM, listed as Propranolol
  Propranolol (cassette) ER: >0.95
[8]; cassette with GNE1 Cin = 8 μM
  Propranolol (cassette) ER: 0.91

## NC1CCN(c2nc(Nc3cc(C4CC4)[nH]n3)c3sccc3n2)CC1 [GNE2, 2-(4-aminopiperidin-1-yl)-N-(5-cyclopropyl-1H-pyrazol-3-yl) thieno [[3],2-d]pyrimidin-4-amine]
[2]
  Kinetic solubility: 72 µM
[16]
  CLint of P450 metabolism in rat S9: <10 mL/min/kg
[3]
  RLM CLint: 62 mL/min/kg
[17]
  CLint of N-acetylation in rat S9: 337 mL/min/kg
[5]
  Clearance relative to hepatic blood flow: greater than hepatic blood flow
[5]; rat, IV bolus
  In vivo rat CLp IV bolus: >>hepatic blood flow
[6]
  HLM CLint: 8.6 mL/min/kg
[7]
  Log DpH=7.4: 0.48
[9]
  Ki: 22 nM
[11]
  MDCK efflux ratio: 13.5
  MDCK A→B Papp: 0.4 ×10⁻⁶ cm/s
[13]
  RH CLint: 91 mL/min/kg
[14]
  HH CLint: 7.6 mL/min/kg
[15]
  fu rat: 0.22

## Nn1nnc2ccccc21 [ABT, 1-aminobenzotriazole]
[18]
  Cmax: 752 µM
[19]
  Inhibition of oxidative and N-acetylation metabolism of GNE1: completely inhibited

## N[C@H]1CC[C@H](CNc2nccc(Nc3cc(C4CC4)[nH]n3)n2)CC1 [GNE3, N^2-(((1r,4r)-4-aminocyclohexyl)methyl)-N^4-(5-cyclo-propyl-1H-pyrazol-3-yl)pyrimidine-2,4-diamine]
[2]
  Kinetic solubility: 136 µM
[16]
  CLint of P450 metabolism in rat S9: <10 mL/min/kg
[3]
  RLM CLint: 8.3 mL/min/kg
[17]
  CLint of N-acetylation in rat S9: 21 mL/min/kg
[5]
  Clearance relative to hepatic blood flow: greater than hepatic blood flow
[5]; rat, IV bolus
  In vivo rat CLp IV bolus: 160 mL/min/kg
[6]
  HLM CLint: 9.1 mL/min/kg
[7]
  Log DpH=7.4: -0.2
[9]
  Ki: 26 nM
[11]
  MDCK efflux ratio: 6.2
  MDCK A→B Papp: 0.5 ×10⁻⁶ cm/s
[13]
  RH CLint: 10 mL/min/kg
[14]
  HH CLint: 4.5 mL/min/kg
[15]
  fu rat: 0.25

## CC(=O)N[C@H]1CC[C@H](CNc2ncc(Cl)c(Nc3cc(C4CC4)[nH]n3)n2)CC1 [GNE4, N-((1r,4r)-4-(((5-chloro-4-((5-cyclopropyl-1H-pyrazol-3-yl)amino)pyrimidin-2-yl)amino)methyl)cyclohexyl)acetamide]
BDC rats, over 72 hours
  GNE4 amount relative to parent (fold less) in urine, feces and bile combined: ~8 fold
[20]
  Stability to hydrolysis: stable to hydrolysis
[10]; intact rats, over 72 hours
  GNE4 amount relative to parent (fold less) in urine, feces and bile combined: approximately 13 fold
[10]; rat, after IV GNE1, up to 24 hours, % of total dose
  Amount of GNE4 (N-acetylated metabolite of GNE1) detected in feces: 9.5%

## C=C[C@H]1C[N@@]2CC[C@H]1C[C@H]2[C@H](O)c1ccnc2ccc(OC)cc12 [quinine]
[21]
  Effect on propranolol metabolism: inhibit propranolol metabolism
